Test results reported in ChEMBL document CHEMBL5303573, “Mapping human microbiome drug metabolism by gut bacteria and their genes” (Nature, 2019).

Legend:
[1] = The drug is tested on Clostridium sporogenes strain: ATCC15579 for biotransformation. The drug concentrations were measured before and after a 12-h incubation by liquid-chromatography-coupled mass spectrometry (LC–MS); conditions: 2 µM
[2] = bifidobacterium adolescentis, 12 h, 2 µM
Description: The drug is tested on Bifidobacterium adolescentis strain: ATCC 15703 for biotransformation. The drug concentrations were measured before and after a 12-h incubation by liquid-chromatography-coupled mass spectrometry (LC–MS)

[3] = The drug is tested on Eubacterium rectale strain: ATCC33656 for biotransformation. The drug concentrations were measured before and after a 12-h incubation by liquid-chromatography-coupled mass spectrometry (LC–MS); conditions: agathobacter rectalis, 2 µM
[4] = bacteroides eggerthii, 12 h, 2 µM
Description: The drug is tested on Bacteroides eggerthii strain: DSM20697 for biotransformation. The drug concentrations were measured before and after a 12-h incubation by liquid-chromatography-coupled mass spectrometry (LC–MS)

[5] = bacteroides stercoris, 12 h, 2 µM
Description: The drug is tested on Bacteroides stercoris strain: ATCC43183 for biotransformation. The drug concentrations were measured before and after a 12-h incubation by liquid-chromatography-coupled mass spectrometry (LC–MS)

[6] = The drug is tested on Bacteroides vulgatus strain: ATCC8482 for biotransformation. The drug concentrations were measured before and after a 12-h incubation by liquid-chromatography-coupled mass spectrometry (LC–MS); conditions: phocaeicola vulgatus, 2 µM
[7] = bacteroides fragilis, 12 h, 2 µM
Description: The drug is tested on Bacteroides fragilis strain: DS-208 for biotransformation. The drug concentrations were measured before and after a 12-h incubation by liquid-chromatography-coupled mass spectrometry (LC–MS)

[8] = The drug is tested on Coprococcus comes strain: ATCC27758 for biotransformation. The drug concentrations were measured before and after a 12-h incubation by liquid-chromatography-coupled mass spectrometry (LC–MS); type: ADME; parameters: dose 2 uM, timepoint 0 vs 12 hours; conditions: 2 µM
[9] = The drug is tested on Bifidobacterium ruminantium strain: fecal isolate for biotransformation. The drug concentrations were measured before and after a 12-h incubation by liquid-chromatography-coupled mass spectrometry (LC–MS); conditions: 2 µM
[10] = The drug is tested on Bacteroides uniformis strain: ATCC8492 for biotransformation. The drug concentrations were measured before and after a 12-h incubation by liquid-chromatography-coupled mass spectrometry (LC–MS); conditions: 2 µM
[11] = limosilactobacillus reuteri cf48-3a, 12 h, 2 µM
Description: The drug is tested on Lactobacillus reuteri CF48-3A strain: BEI HM-102 for biotransformation. The drug concentrations were measured before and after a 12-h incubation by liquid-chromatography-coupled mass spectrometry (LC–MS)

[12] = The drug is tested on Providencia rettgeri strain: DSM1131 for biotransformation. The drug concentrations were measured before and after a 12-h incubation by liquid-chromatography-coupled mass spectrometry (LC–MS); type: ADME; parameters: dose 2 uM, timepoint 0 vs 12 hours; conditions: 2 µM
[13] = roseburia intestinalis, 12 h, 2 µM
Description: The drug is tested on Roseburia intestinalis strain: L1-82 for biotransformation. The drug concentrations were measured before and after a 12-h incubation by liquid-chromatography-coupled mass spectrometry (LC–MS)

[14] = The drug is tested on Ruminococcus torques strain: ATCC27756 for biotransformation. The drug concentrations were measured before and after a 12-h incubation by liquid-chromatography-coupled mass spectrometry (LC–MS); type: ADME; parameters: dose 2 uM, timepoint 0 vs 12 hours; conditions: 2 µM
[15] = parabacteroides johnsonii, 12 h, 2 µM
Description: The drug is tested on Parabacteroides johnsonii strain: DSM18315 for biotransformation. The drug concentrations were measured before and after a 12-h incubation by liquid-chromatography-coupled mass spectrometry (LC–MS)

[16] = bacteroides fragilis, 12 h, 2 µM; remark: listed apart in the source
Description: The drug is tested on Bacteroides fragilis strain: 3397 (T10) for biotransformation. The drug concentrations were measured before and after a 12-h incubation by liquid-chromatography-coupled mass spectrometry (LC–MS)

[17] = The drug is tested on Odoribacter splanchnicus strain: fecal isolate for biotransformation. The drug concentrations were measured before and after a 12-h incubation by liquid-chromatography-coupled mass spectrometry (LC–MS); conditions: 2 µM
[18] = akkermansia muciniphila, 12 h, 2 µM
Description: The drug is tested on Akkermansia muciniphila strain: ATCC BAA-835 for biotransformation. The drug concentrations were measured before and after a 12-h incubation by liquid-chromatography-coupled mass spectrometry (LC–MS)

[19] = The drug is tested on Bacteroides xylanisolvens strain: DSM18836 for biotransformation. The drug concentrations were measured before and after a 12-h incubation by liquid-chromatography-coupled mass spectrometry (LC–MS); conditions: 2 µM

Row | Bacterial Biotransformation [1] | Bacterial Biotransformation [2] | Bacterial Biotransformation [3] | Bacterial Biotransformation [4] | Bacterial Biotransformation [5] | Bacterial Biotransformation [6] | Bacterial Biotransformation [7] | Bacterial Biotransformation [8] | Bacterial Biotransformation [9] | Bacterial Biotransformation [10] | Bacterial Biotransformation [11] | Bacterial Biotransformation [12] | Bacterial Biotransformation [13] | Bacterial Biotransformation [14] | Bacterial Biotransformation [15] | Bacterial Biotransformation [16] | Bacterial Biotransformation [17] | Bacterial Biotransformation [18] | Bacterial Biotransformation [19] | Compound
1 | Compound NOT metabolized | Compound NOT metabolized | Compound NOT metabolized | Compound NOT metabolized | Compound NOT metabolized | Compound NOT metabolized | Compound NOT metabolized | Compound NOT metabolized | Compound metabolized | Compound NOT metabolized | Compound NOT metabolized | Compound NOT metabolized | Compound NOT metabolized | Compound NOT metabolized | Compound NOT metabolized | Compound NOT metabolized | Compound NOT metabolized |  |  | CN1CCC(OC(c2ccccc2)c2ccccc2)CC1
2 | Compound NOT metabolized | Compound NOT metabolized | Compound NOT metabolized | Compound NOT metabolized | Compound NOT metabolized | Compound NOT metabolized | Compound NOT metabolized |  | Compound NOT metabolized | Compound NOT metabolized | Compound NOT metabolized | Compound NOT metabolized | Compound NOT metabolized | Compound NOT metabolized | Compound NOT metabolized | Compound NOT metabolized | Compound NOT metabolized | Compound NOT metabolized |  | CC(C)(C(=O)O)c1ccc(C(O)CCCN2CCC(C(O)(c3ccccc3)c3ccccc3)CC2)cc1 (stereo not given) [FEXOFENADINE]
3 | Compound NOT metabolized | Compound NOT metabolized | Compound NOT metabolized | Compound NOT metabolized | Compound NOT metabolized | Compound NOT metabolized | Compound NOT metabolized | Compound NOT metabolized | Compound NOT metabolized |  | Compound NOT metabolized | Compound NOT metabolized | Compound NOT metabolized | Compound NOT metabolized |  | Compound NOT metabolized | Compound NOT metabolized | Compound NOT metabolized |  | O=C(CCCN1CCC(O)(c2ccc(Cl)cc2)CC1)c1ccc(F)cc1 [HALOPERIDOL]
4 | Compound NOT metabolized | Compound NOT metabolized | Compound NOT metabolized | Compound NOT metabolized | Compound NOT metabolized |  | Compound NOT metabolized | Compound NOT metabolized | Compound NOT metabolized | Compound NOT metabolized | Compound NOT metabolized | Compound NOT metabolized | Compound NOT metabolized | Compound NOT metabolized | Compound NOT metabolized | Compound NOT metabolized | Compound NOT metabolized | Compound NOT metabolized | Compound NOT metabolized | CN1CCC(=C2c3ccccc3CC(=O)c3sccc32)CC1.O=C(O)/C=C/C(=O)O [KETOTIFEN FUMARATE]
5 | Compound NOT metabolized | Compound NOT metabolized | Compound NOT metabolized | Compound NOT metabolized | Compound NOT metabolized | Compound NOT metabolized | Compound NOT metabolized | Compound NOT metabolized | Compound NOT metabolized | Compound NOT metabolized | Compound NOT metabolized | Compound NOT metabolized | Compound NOT metabolized | Compound NOT metabolized | Compound NOT metabolized | Compound NOT metabolized | Compound NOT metabolized |  | Compound NOT metabolized | CCN(CC)CCNC(=O)c1cc(Cl)c(N)cc1OC [METOCLOPRAMIDE]
6 | Compound NOT metabolized | Compound NOT metabolized | Compound NOT metabolized | Compound NOT metabolized | Compound NOT metabolized | Compound metabolized | Compound metabolized | Compound NOT metabolized | Compound NOT metabolized | Compound metabolized | Compound NOT metabolized | Compound NOT metabolized |  | Compound NOT metabolized |  | Compound NOT metabolized | Compound metabolized | Compound NOT metabolized | Compound NOT metabolized | CC(C)[C@H]1CC[C@H](C(=O)N[C@H](Cc2ccccc2)C(=O)O)CC1 [NATEGLINIDE]

Row | Compound | Bacterial Biotransformation [1] | Bacterial Biotransformation [2] | Bacterial Biotransformation [3] | Bacterial Biotransformation [4] | Bacterial Biotransformation [5] | Bacterial Biotransformation [6] | Bacterial Biotransformation [7] | Bacterial Biotransformation [8] | Bacterial Biotransformation [9] | Bacterial Biotransformation [10] | Bacterial Biotransformation [11] | Bacterial Biotransformation [12] | Bacterial Biotransformation [13] | Bacterial Biotransformation [14] | Bacterial Biotransformation [15] | Bacterial Biotransformation [16] | Bacterial Biotransformation [17] | Bacterial Biotransformation [18] | Bacterial Biotransformation [19]
7 | CN(C)C(=O)Oc1cccc([N+](C)(C)C)c1.[Br-] [NEOSTIGMINE BROMIDE] | Compound NOT metabolized | Compound NOT metabolized | Compound NOT metabolized |  | Compound NOT metabolized |  | Compound metabolized | Compound NOT metabolized | Compound NOT metabolized | Compound metabolized | Compound NOT metabolized | Compound NOT metabolized | Compound NOT metabolized | Compound NOT metabolized | Compound NOT metabolized | Compound metabolized | Compound NOT metabolized |  | 
8 | Cc1cc2c(s1)Nc1ccccc1N=C2N1CCN(C)CC1 [OLANZAPINE] | Compound NOT metabolized | Compound NOT metabolized | Compound NOT metabolized | Compound NOT metabolized | Compound NOT metabolized | Compound NOT metabolized | Compound NOT metabolized | Compound NOT metabolized | Compound NOT metabolized |  | Compound NOT metabolized | Compound NOT metabolized | Compound NOT metabolized | Compound NOT metabolized | Compound NOT metabolized | Compound metabolized | Compound metabolized | Compound NOT metabolized | Compound NOT metabolized
9 | COc1ccc(Cc2nccc3cc(OC)c(OC)cc23)cc1OC [PAPAVERINE] | Compound NOT metabolized | Compound NOT metabolized | Compound NOT metabolized | Compound NOT metabolized | Compound NOT metabolized |  | Compound NOT metabolized | Compound NOT metabolized | Compound NOT metabolized |  | Compound NOT metabolized | Compound NOT metabolized | Compound NOT metabolized | Compound NOT metabolized |  | Compound NOT metabolized |  |  | Compound NOT metabolized
